The target in assay [1] is T1, Epidermal growth factor receptor (Homo sapiens, UniProt P00533).
Target sequence in this assay (P00533 whole entry): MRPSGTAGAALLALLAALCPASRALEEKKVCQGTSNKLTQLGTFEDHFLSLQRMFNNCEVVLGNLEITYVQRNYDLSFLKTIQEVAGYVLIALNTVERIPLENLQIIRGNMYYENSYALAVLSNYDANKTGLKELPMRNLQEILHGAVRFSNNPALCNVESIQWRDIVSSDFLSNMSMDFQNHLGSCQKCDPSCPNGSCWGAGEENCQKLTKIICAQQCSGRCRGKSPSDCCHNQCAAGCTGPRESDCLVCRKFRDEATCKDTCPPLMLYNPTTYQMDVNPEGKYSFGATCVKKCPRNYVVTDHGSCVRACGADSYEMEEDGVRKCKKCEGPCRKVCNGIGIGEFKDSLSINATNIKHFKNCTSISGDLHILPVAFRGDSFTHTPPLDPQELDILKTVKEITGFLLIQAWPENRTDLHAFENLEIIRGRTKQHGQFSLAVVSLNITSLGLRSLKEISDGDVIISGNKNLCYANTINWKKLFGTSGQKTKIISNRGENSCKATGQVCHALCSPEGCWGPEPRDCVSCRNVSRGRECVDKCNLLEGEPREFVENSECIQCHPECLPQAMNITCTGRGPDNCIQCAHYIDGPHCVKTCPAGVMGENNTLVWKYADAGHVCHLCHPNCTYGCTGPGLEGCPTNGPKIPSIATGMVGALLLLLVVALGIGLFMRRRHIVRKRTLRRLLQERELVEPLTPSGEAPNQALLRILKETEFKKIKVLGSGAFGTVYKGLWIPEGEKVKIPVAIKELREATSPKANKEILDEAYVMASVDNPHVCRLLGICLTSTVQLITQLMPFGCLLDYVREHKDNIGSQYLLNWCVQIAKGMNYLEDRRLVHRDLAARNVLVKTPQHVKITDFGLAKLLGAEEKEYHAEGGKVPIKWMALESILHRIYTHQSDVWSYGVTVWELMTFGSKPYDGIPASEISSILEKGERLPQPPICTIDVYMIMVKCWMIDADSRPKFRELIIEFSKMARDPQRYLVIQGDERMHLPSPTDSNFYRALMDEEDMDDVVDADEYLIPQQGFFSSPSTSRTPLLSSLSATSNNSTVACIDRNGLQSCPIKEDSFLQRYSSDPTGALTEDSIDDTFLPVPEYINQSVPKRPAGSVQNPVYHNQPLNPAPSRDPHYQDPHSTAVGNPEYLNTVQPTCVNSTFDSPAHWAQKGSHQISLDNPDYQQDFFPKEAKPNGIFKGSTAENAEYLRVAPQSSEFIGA
Description: Inhibition of wildtype EGFR (unknown origin) preincubated for 30 mins followed by addition of 2x ATP-substrate mixture measured after 1 hr by Kinase Glo luminescent kinase assay
A further assay relates to A549. Description: cells. The assay is classed as functional, cell-based. The settings on record: Homo sapiens, A549, 48 h.
Assay [2] deals with T1, Epidermal growth factor receptor. It is filed as protein assay.
Target sequence in this assay (P00533 25-1210 limits assumed, change not shown): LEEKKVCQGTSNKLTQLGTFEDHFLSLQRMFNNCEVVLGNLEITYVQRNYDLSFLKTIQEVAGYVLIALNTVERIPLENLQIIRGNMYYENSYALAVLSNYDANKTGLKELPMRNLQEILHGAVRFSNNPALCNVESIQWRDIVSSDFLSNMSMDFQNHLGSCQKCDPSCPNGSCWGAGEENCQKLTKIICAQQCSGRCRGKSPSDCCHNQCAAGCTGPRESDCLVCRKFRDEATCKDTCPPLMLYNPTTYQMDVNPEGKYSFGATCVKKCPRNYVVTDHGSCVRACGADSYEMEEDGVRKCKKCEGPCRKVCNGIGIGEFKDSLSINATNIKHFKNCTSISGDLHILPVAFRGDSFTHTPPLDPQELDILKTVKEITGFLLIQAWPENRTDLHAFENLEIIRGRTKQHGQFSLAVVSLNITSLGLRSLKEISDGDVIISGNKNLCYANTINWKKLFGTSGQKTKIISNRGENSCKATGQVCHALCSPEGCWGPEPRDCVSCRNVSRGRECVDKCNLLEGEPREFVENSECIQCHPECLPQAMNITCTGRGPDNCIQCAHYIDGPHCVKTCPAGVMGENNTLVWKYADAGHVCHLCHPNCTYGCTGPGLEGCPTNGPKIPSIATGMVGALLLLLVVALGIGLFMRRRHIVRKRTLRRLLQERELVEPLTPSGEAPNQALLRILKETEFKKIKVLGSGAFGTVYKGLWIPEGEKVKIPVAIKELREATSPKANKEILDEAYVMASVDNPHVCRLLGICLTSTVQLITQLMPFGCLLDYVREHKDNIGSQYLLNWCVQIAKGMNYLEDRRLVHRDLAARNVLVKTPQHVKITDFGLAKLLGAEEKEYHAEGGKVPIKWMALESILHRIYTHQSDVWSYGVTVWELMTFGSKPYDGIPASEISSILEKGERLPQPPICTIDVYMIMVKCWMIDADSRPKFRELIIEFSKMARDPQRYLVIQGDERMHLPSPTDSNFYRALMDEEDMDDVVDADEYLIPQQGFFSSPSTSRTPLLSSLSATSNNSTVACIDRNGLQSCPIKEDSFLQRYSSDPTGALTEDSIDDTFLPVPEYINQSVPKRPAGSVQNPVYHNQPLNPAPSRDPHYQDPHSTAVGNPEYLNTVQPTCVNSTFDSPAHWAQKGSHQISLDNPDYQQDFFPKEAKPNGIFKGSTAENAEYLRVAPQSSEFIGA
Description: Inhibition of EGFR-T790M/L858 mutant (unknown origin) preincubated for 30 mins followed by addition of 2x ATP-substrate mixture measured after 1 hr by Kinase Glo luminescent kinase assay
The test system of another assay is NCI-H358. Description: cells. It is filed as functional, cell-based. Conditions: Homo sapiens, NCI-H358, 48 h.

Consider 20 compounds from ChEMBL document CHEMBL3774304, “Novel morpholin-3-one fused quinazoline derivatives as EGFR tyrosine kinase inhibitors” (Bioorg Med Chem Lett, 2016).

Description for A549: Antiproliferative activity against human A549 cells assessed as viable cells after 48 hrs by CCK8 assay
Description for NCI-H358: Antiproliferative activity against human NCI-H358 cells assessed as viable cells after 48 hrs by CCK8 assay

The term IC50 denotes the point on the concentration scale where inhibition reaches its midpoint. In assay [1], `C#Cc1cccc(Nc2ncnc3cc4c(cc23)N(CCCN2CCCCC2)C(=O)CO4)c1` had an IC50 of 211 nM. Turning to `O=C1COc2cc3ncnc(Nc4ccc(F)cc4)c3cc2N1CCCN1CCOCC1`, in assay [1], the IC50 is 434 nM. `Cc1ccc(Nc2ncnc3cc4c(cc23)N(CCCN2CCOCC2)C(=O)CO4)cc1Cl` had an IC50 in assay [1] of 163 nM. As to `O=C1COc2cc3ncnc(Nc4ccc(Br)cc4)c3cc2N1CCCN1CCOCC1`, in assay [1], half-maximal inhibition (IC50) required 824 nM. On the same count and under the same terms, the figure for `Cc1ccc(Nc2ncnc3cc4c(cc23)N(CCCN2CCOCC2)C(=O)CO4)cc1` is 594 nM. As for `O=C1COc2cc3ncnc(Nc4cccc(Br)c4)c3cc2N1CCCN1CCOCC1`, in assay [1], the IC50 was found to be 89.6 nM. For the compound `COc1cccc(Nc2ncnc3cc4c(cc23)N(CCCN2CCOCC2)C(=O)CO4)c1`, the IC50 in assay [1] is more than 1000 nM.

For `C#Cc1cccc(Nc2ncnc3cc4c(cc23)N(CCCN2CCOCC2)C(=O)CO4)c1`, the IC50 is 5580 nM with A549, 139 nM in assay [1], 880 nM in assay [2] and 13500 nM in the assay on NCI-H358.

In assay [1], `O=C1COc2cc3ncnc(Nc4cccc(Cl)c4)c3cc2N1CCCN1CCOCC1` yielded an IC50 of 63.1 nM.

In assay [1], `O=C1COc2cc3ncnc(Nc4cccc(C(F)(F)F)c4)c3cc2N1CCCN1CCOCC1` had an IC50 of 829 nM. Take `O=C1COc2cc3ncnc(Nc4ccc(F)c(Cl)c4)c3cc2N1CCCN1CCCCC1`: in assay [1], the IC50 amounted to 138 nM. Still for that read-out and setting: the figure for `O=C1COc2cc3ncnc(Nc4cccc(Br)c4)c3cc2N1CCCN1CCCCC1` is 99 nM. For the compound `O=C1COc2cc3ncnc(Nc4ccccc4)c3cc2N1CCCN1CCOCC1`, the IC50 in assay [1] was found to be 519 nM. In assay [1], `O=C1COc2cc3ncnc(Nc4cccc(F)c4)c3cc2N1CCCN1CCOCC1` yielded an IC50 of 245 nM. This IC50 is about 2.1-fold lower than that of the compound before. Same read-out and setting: the figure for `COc1ccc(Nc2ncnc3cc4c(cc23)N(CCCN2CCOCC2)C(=O)CO4)cc1OC` is more than 1000 nM; for `Cc1cccc(Nc2ncnc3cc4c(cc23)N(CCCN2CCOCC2)C(=O)CO4)c1` it is 187 nM.

On to `O=C1COc2cc3ncnc(Nc4cccc(Cl)c4)c3cc2N1CCCN1CCCCC1`, for which, in assay [1], half-maximal inhibition (IC50) required 116 nM. With `O=C1COc2cc3ncnc(Nc4ccc(F)c(Cl)c4)c3cc2N1CCCN1CCOCC1`, the IC50 stood at 7510 nM in the assay on A549, 53.1 nM in assay [1], 336 nM in assay [2] and 13500 nM in the assay on NCI-H358. Consider `Cc1cccc(Nc2ncnc3cc4c(cc23)N(CCCN2CCCCC2)C(=O)CO4)c1`, for which half-maximal inhibition in assay [1] (IC50) required 456 nM. In turn, `O=C1COc2cc3ncnc(Nc4ccc(Cl)cc4)c3cc2N1CCCN1CCOCC1` came in with an IC50 in assay [1] of 354 nM.
